In patent publication US8278072B1, “Method for synthesis of sialylated products using reversible sialylation” (Health Research, Inc., priority 2007, dated 2012):

What was measured:
MDA-MB231 = experiment: Reversible sialyltransferase activity in cell extract; assay type: biochemical, human; conditions: MDA-MB231 (breast) cell extract, 1.0 mM 5′-CMP, 16 h, pH 6.0
Excerpt: (§1) Thus, [9-^3H[4]] was used as donor and D-Fucβ1,3GalNAcα-O-Bn as acceptor in the presence of 5′-CMP and solubilized cell extracts. Of the cells tested, human prostate cancer cell lines LNCaP and PC-3 contained significant reversible sialyltransferase activity.

T47D = experiment: as above; assay type: biochemical, human; conditions: T47D (breast) cell extract, 1.0 mM 5′-CMP, 16 h, pH 6.0
Excerpt: as §1

PC3 = experiment: as above; assay type: biochemical, human; conditions: PC3 (prostate) cell extract, 1.0 mM 5′-CMP, 16 h, pH 6.0
Excerpt: as §1

MCF-7 = experiment: as above; assay type: biochemical, human; conditions: MCF-7 (breast) cell extract, 1.0 mM 5′-CMP, 16 h, pH 6.0
Excerpt: as §1

ZR75-1 = experiment: as above; assay type: biochemical, human; conditions: ZR75-1 (breast) cell extract, 1.0 mM 5′-CMP, 16 h, pH 6.0
Excerpt: as §1

HL60 = experiment: as above; assay type: biochemical, human; conditions: HL60 (leukemia) cell extract, 1.0 mM 5′-CMP, 16 h, pH 6.0
Excerpt: as §1

LS180 = experiment: as above; assay type: biochemical, human; conditions: LS180 (colon) cell extract, 1.0 mM 5′-CMP, 16 h, pH 6.0
Excerpt: as §1

MDA-MB-435 = experiment: as above; assay type: biochemical, human; conditions: MDA-MB-435 (breast) cell extract, 1.0 mM 5′-CMP, 16 h, pH 6.0
Excerpt: as §1

LNCaP = experiment: as above; assay type: biochemical, human; conditions: LNCaP (prostate) cell extract, 1.0 mM 5′-CMP, 16 h, pH 6.0
Excerpt: as §1

ST3Gal-II = biological target: T1, ST3Gal-II (Rattus norvegicus, UniProt Q11205); experiment: Serial transfer of sialic acid from donor via 5′-CMP to acceptors (scheme-II); assay type: biochemical; conditions: 0.15 mM donor; 2 mM 5′-CMP with core-2 donors
T1 construct: purchased Calbiochem
T1 sequence (Q11205 1-350): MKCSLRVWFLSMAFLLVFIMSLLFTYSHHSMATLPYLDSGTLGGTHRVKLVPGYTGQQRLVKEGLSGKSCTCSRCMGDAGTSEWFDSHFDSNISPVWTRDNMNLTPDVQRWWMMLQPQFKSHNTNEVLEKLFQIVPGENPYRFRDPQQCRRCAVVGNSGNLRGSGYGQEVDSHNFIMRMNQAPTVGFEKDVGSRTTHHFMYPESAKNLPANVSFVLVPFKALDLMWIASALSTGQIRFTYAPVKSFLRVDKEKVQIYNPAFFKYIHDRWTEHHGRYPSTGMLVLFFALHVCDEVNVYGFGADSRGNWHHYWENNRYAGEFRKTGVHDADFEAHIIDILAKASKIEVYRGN

[9-^3H]NeuAcα2,3Galβ1,3(6-O-SulfoGlcNAcβ1,6)GalNAcα-O—Al [[4]]
Transfer of [9-3H]NeuAc from [9-3H[4]] to [5] (MDA-MB231): 0.09 CPM × 10^−3/mg protein
Transfer of [9-3H]NeuAc from [9-3H[4]] to [5] (T47D): 0.52 CPM × 10^−3/mg protein
Transfer of [9-3H]NeuAc from [9-3H[4]] to [5] (PC3): 4.72 CPM × 10^−3/mg protein
Transfer of [9-3H]NeuAc from [9-3H[4]] to [5] (MCF-7): 0.57 CPM × 10^−3/mg protein
Transfer of [9-3H]NeuAc from [9-3H[4]] to [5] (ZR75-1): 1.32 CPM × 10^−3/mg protein
Transfer of [9-3H]NeuAc from [9-3H[4]] to [5] (HL60): 0.76 CPM × 10^−3/mg protein
Transfer of [9-3H]NeuAc from [9-3H[4]] to [5] (LS180): 0.01 CPM × 10^−3/mg protein
Transfer of [9-3H]NeuAc from [9-3H[4]] to [5] (MDA-MB-435): 0.69 CPM × 10^−3/mg protein
Transfer of [9-3H]NeuAc from [9-3H[4]] to [5] (LNCaP): 19.89 CPM × 10^−3/mg protein
amount of acceptor [5] required for comparable transfer (ST3Gal-II): ~6 mM
